Measurements taken from patent publication US11253499B2, “Compounds” (priority 2017, dated 2022).

What follows are compounds tested on M. tuberculosis W4-E1-GFP (Mutant). Settings: read-out: EC50_Mutant.
Format: cell-based, Mycobacterium tuberculosis

SMILES | EC50
O=C(CCC(F)(F)F)N1CC(c2ccc(F)cc2)C1 [Example 1, 4,4,4-trifluoro-1-[3-(4-fluorophenyl)azetidin-1-yl]butan-1-one] | < 0.05 µM
O=C(CCC(F)(F)F)N1CC(c2cccc(C(F)(F)F)c2)C1 [Example 2, 4,4,4-trifluoro-1-[3-[3-(trifluoromethyl)phenyl]azetidin-1-yl]butan-1-one] | 0.05 to 0.25 µM
O=C(CCCC(F)(F)F)N1CC(c2ccc(F)cc2)C1 [Example 3, 5,5,5-trifluoro-1-[3-(4-fluorophenyl)azetidin-1-yl]pentan-1-one] | 0.05 to 0.25 µM
O=C(CCC(F)(F)F)N1CC(C2CC2)C1 [Example 4, 1-(3-cyclopropylazetidin-1-yl)-4,4,4-trifluoro-butan-1-one] | 0.5 to 1 µM
O=C(CCC(F)(F)F)N1CC(C2CCCC2)C1 [Example 5, 1-(3-cyclopentylazetidin-1-yl)-4,4,4-trifluoro-butan-1-one] | 0.05 to 0.25 µM
O=C(CCC(F)(F)F)N1CC(C2CCCCC2)C1 [Example 6, 1-(3-cyclohexylazetidin-1-yl)-4,4,4-trifluoro-butan-1-one] | < 0.05 µM
O=C(CCC(F)(F)F)N1CC(c2cc(C(F)(F)F)ccn2)C1 [Example 7, 4,4,4-trifluoro-1-[3-[4-(trifluoromethyl)-2-pyridyl]azetidin-1-yl]butan-1-one] | 0.25 to 0.5 µM
O=C(CCC(F)(F)F)N1CC(c2ccc(C(F)(F)F)cn2)C1 [Example 8, 4,4,4-trifluoro-1-[3-[5-(trifluoromethyl)-2-pyridyl]azetidin-1-yl]butan-1-one] | 0.5 to 1 µM
O=C(CCC(F)(F)F)N1CC(c2ccc(F)cn2)C1 [Example 9, 4,4,4-trifluoro-1-[3-(5-fluoro-2-pyridyl)azetidin-1-yl]butan-1-one] | 0.5 to 1 µM
O=C(CCC(F)(F)F)N1CC(c2ncc(F)cc2F)C1 [Example 10, 1-[3-(3,5-difluoro-2-pyridyl)azetidin-1-yl]-4,4,4-trifluoro-butan-1-one] | 0.25 to 0.5 µM
O=C(CCC(F)(F)F)N1CC(c2cc(Cl)ccn2)C1 [Example 11, 1-[3-(4-chloro-2-pyridyl)azetidin-1-yl]-4,4,4-trifluoro-butan-1-one] | 0.05 to 0.25 µM
O=C(CCC(F)(F)F)N1CC(c2ccnc(C(F)(F)F)c2)C1 [Example 12, 4,4,4-trifluoro-1-[3-[2-(trifluoromethyl)-4-pyridyl]azetidin-1-yl]butan-1-one] | 1 to 10 µM
O=C(CCC(F)(F)F)N1CC(c2ccc(Cl)cc2)C1 [Example 13, 1-[3-(4-chlorophenyl)azetidin-1-yl]-4,4,4-trifluoro-butan-1-one] | 0.05 to 0.25 µM
O=C(CCC(F)(F)F)N1CC(c2ccc(OC(F)(F)F)cc2)C1 [Example 14, 4,4,4-trifluoro-1-[3-[4-(trifluoromethoxy)phenyl]azetidin-1-yl]butan-1-one] | 1 to 10 µM
O=C(CCC(F)(F)F)N1CC(c2cccc(OC(F)(F)F)c2)C1 [Example 15, 4,4,4-trifluoro-1-[3-[3-(trifluoromethoxy)phenyl]azetidin-1-yl]butan-1-one] | 0.05 to 0.25 µM
O=C(CCC(F)(F)F)N1CC(c2ccc(C(F)(F)F)cc2)C1 [Example 16] | 0.25 to 0.5 µM
O=C(CCC(F)(F)F)N1CC(c2cccc(Cl)c2)C1 [Example 17, 1-[3-(3-chlorophenyl)azetidin-1-yl]-4,4,4-trifluoro-butan-1-one] | < 0.05 µM
O=C(CCC(F)(F)F)N1CC(c2ccc(F)cc2F)C1 [Example 18, 1-[3-(2,4-difluorophenyl)azetidin-1-yl]-4,4,4-trifluoro-butan-1-one] | < 0.05 µM
O=C(CCC(F)(F)F)N1CC(c2ccc(Cl)nc2)C1 [Example 19] | 1 to 10 µM
O=C(CCC(F)(F)F)N1CC(c2ccc(F)cc2Cl)C1 [Example 20, 1-[3-(2-chloro-4-fluoro-phenyl)azetidin-1-yl]-4,4,4-trifluoro-butan-1-one] | 0.05 to 0.25 µM
O=C(CCC(F)(F)F)N1CC(c2ccc(C(F)(F)F)nc2)C1 [Example 21, 4,4,4-trifluoro-1-[3-[6-(trifluoromethyl)-3-pyridyl]azetidin-1-yl]butan-1-one] | 1 to 10 µM
COc1ccc(C2CN(C(=O)CCC(F)(F)F)C2)cn1 [Example 22, 4,4,4-trifluoro-1-[3-(6-methoxy-3-pyridyl)azetidin-1-yl]butan-1-one] | 0.05 to 0.25 µM

SMILES | EC50
O=C(CCC(F)(F)F)N1CC(c2cncc(Cl)c2)C1 [Example 23, 1-[3-(5-chloro-3-pyridyl)azetidin-1-yl]-4,4,4-trifluoro-butan-1-one] | 1 to 10 µM
O=C(CCC(F)(F)F)N1CC(c2cncc(C(F)(F)F)c2)C1 [Example 24, 4,4,4-trifluoro-1-[3-[5-(trifluoromethyl)-3-pyridyl]azetidin-1-yl]butan-1-one] | 1 to 10 µM
O=C(CCC(F)(F)F)N1CC(c2ccc(F)cc2C(F)(F)F)C1 [Example 25, 4,4,4-trifluoro-1-[3-[4-fluoro-2-(trifluoromethyl)phenyl]azetidin-1-yl]butan-1-one] | 0.25 to 0.5 µM
O=C(CCC(F)(F)F)N1CC(c2cccnc2)C1 [Example 26, 4,4,4-trifluoro-1-[3-(3-pyridyl)azetidin-1-yl]butan-1-one] | 1 to 10 µM
O=C(CCC(F)(F)F)N1CC(c2ccc(F)c(F)c2)C1 [Example 27, 1-[3-(3,4-difluorophenyl)azetidin-1-yl]-4,4,4-trifluoro-butan-1-one] | < 0.05 µM
Cc1cc(F)ccc1C1CN(C(=O)CCC(F)(F)F)C1 [Example 28, 4,4,4-trifluoro-1-[3-(4-fluoro-2-methyl-phenyl)azetidin-1-yl]butan-1-one] | 0.25 to 0.5 µM
O=C(CCC(F)(F)F)N1CC(c2cccc(F)c2)C1 [Example 29, 4,4,4-trifluoro-1-[3-(3-fluorophenyl)azetidin-1-yl]butan-1-one] | 0.05 to 0.25 µM
O=C(CCC(F)(F)F)N1CC(c2ccncc2)C1 [Example 30, 4,4,4-trifluoro-1-[3-(4-pyridyl)azetidin-1-yl]butan-1-one] | 1 to 10 µM
O=C(CCC(F)(F)F)N1CC(c2ccnc(F)c2)C1 [Example 31, 4,4,4-trifluoro-1-[3-(2-fluoro-4-pyridyl)azetidin-1-yl]butan-1-one] | 1 to 10 µM
O=C(CCC(F)(F)F)N1CC(c2ccnc(Cl)c2)C1 [Example 32, 1-[3-(2-chloro-4-pyridyl)azetidin-1-yl]-4,4,4-trifluoro-butan-1-one] | 1 to 10 µM
O=C(CCC(F)(F)F)N1CC(c2ccc(F)nc2)C1 [Example 33, 4,4,4-trifluoro-1-[3-(6-fluoro-3-pyridyl)azetidin-1-yl]butan-1-one] | 1 to 10 µM
O=C(CCC(F)(F)F)N1CC(c2cc(F)c(F)c(F)c2)C1 [Example 34, 4,4,4-trifluoro-1-[3-(3,4,5-trifluorophenyl)azetidin-1-yl]butan-1-one] | 0.05 to 0.25 µM
O=C(CCC(F)(F)F)N1CC(N2CCC(F)(F)CC2)C1 [Example 35, 1-[3-(4,4-difluoro-1-piperidyl)azetidin-1-yl]-4,4,4-trifluoro-butan-1-one] | 0.5 to 1 µM
CC(C)Oc1ccc(C2CN(C(=O)CCC(F)(F)F)C2)cn1 [Example 36, 4,4,4-trifluoro-1-[3-(6-isopropoxy-3-pyridyl)azetidin-1-yl]butan-1-one] | 1 to 10 µM
O=C(CCC(F)(F)F)N1CC(c2ccc(OCC(F)(F)F)nc2)C1 [Example 37, 4,4,4-trifluoro-1-[3-[6-(2,2,2-trifluoroethoxy)-3-pyridyl]azetidin-1-yl]butan-1-one] | 1 to 10 µM
O=C(CCC(F)(F)F)N1CC(C2CCOCC2)C1 [Example 38, 4,4,4-trifluoro-1-(3-(tetrahydro-2H-pyran-4-yl)azetidin-1-yl)butan-1-one] | 1 to 10 µM
O=C(CCC(F)(F)F)N1CC(N2CCCCC2)C1 [Example 39, 4,4,4-trifluoro-1-(3-(piperidin-1-yl)azetidin-1-yl)butan-1-one] | 1 to 10 µM
O=C(CCC(F)(F)F)N1CC(C2CCC(F)(F)CC2)C1 [Example 40, 1-(3-(4,4-difluorocyclohexyl)azetidin-1-yl)-4,4,4-trifluorobutan-1-one] | 0.05 to 0.25 µM
COC1(c2ccc(F)cc2)CN(C(=O)CCC(F)(F)F)C1 [Example 41, 4,4,4-trifluoro-1-(3-(4-fluorophenyl)-3-methoxyazetidin-1-yl)butan-1-one] | 0.05 to 0.25 µM
CC1(c2ccc(F)cc2)CN(C(=O)CCC(F)(F)F)C1 [Example 42, 4,4,4-trifluoro-1-(3-(4-fluorophenyl)-3-methylazetidin-1-yl)butan-1-one] | 0.05 to 0.25 µM
N#Cc1ccc(C2CN(C(=O)CCC(F)(F)F)C2)cc1 [Example 43, 4-(1-(4,4,4-trifluorobutanoyl)azetidin-3-yl)benzonitrile] | 1 to 10 µM
O=C(CCC(F)(F)F)N1CC(F)(c2ccc(F)cc2)C1 [Example 44, 4,4,4-trifluoro-1-(3-fluoro-3-(4-fluorophenyl)azetidin-1-yl)butan-1-one] | < 0.05 µM
